Structures can show the parent of a compound that is named as a salt. No end group written: not given here.
Columns and labels:
Male ICR mice = assay: Step-down inhibitory avoidance test, scopolamine-induced memory impairment; type: in vivo; conditions: 1.5 mg/kg oral gavage once a day for 21 days; scopolamine 2 mg/kg i.p.; vs model group, P<0.01
Experimental: Male ICR mice, aged 4-5 weeks were used in the study.
The study was performed in step-down inhibitory avoidance equipment with dimensions 12 cm×2 cm×18 cm in each chamber (Model: YLS-3T, Shandong Yiyan Technology Co., LTD., China). The bottom of each chamber was covered with a copper grid that can be electrified. A rubber platform was placed in the right corner of each chamber.
Male ICR mice in each group were treated by oral gavage once a day for 21 days with the vehicle, Donepezil Hydrochloride (1.5 mg/kg), and the peptide […] (SEQ ID NO:2) (0.3, 10 mg/kg), respectively. Two hours after the last administration, scopolamine hydrobromide (2 mg/kg) was injected intraperitoneally to induce memory impairment.
Fifty male ICR mice were divided into 5 groups according to the average of body weight, 10 mice in each group, as detailed in Table 1. […]
Evaluation period: 24 h after the training period, the mice were placed on the rubber platform and evaluated for 5 minutes. The latency of the first jump from the platform to the copper grid was observed and counted, and the latency in seconds was analyzed to evaluate memory improvement.
All results were given as mean±SEM, and the data differences between groups were analyzed by t-test for the paired comparisons using the GraphPad Prism 8 statistical package (GraphPad Software Inc., San Diego, CA, USA). […]

AVPR1A, AVPR1B, AVPR2 = assay: Tail suspension test (TST) with vasopressin receptor inhibitors; type: in vivo
healthy subjects = conditions: human, in vivo
Experimental: A Phase 1a/1b, randomized, placebo-controlled, crossover study with the peptide [sequence] (SEQ ID NO:2) in healthy subjects was performed. The study population included men and women in good general health.
A single ascending dose (SAD) group included four cohorts receiving 60 mg/day (cohorts SAD1 and SAD2). 180 mg/day (cohort SAD3), or 540 mg/day (cohort SAD4) of the peptide or placebo. A multiple ascending dose (MAD) group included three cohorts receiving 60 mg/day (cohort MAD1), 180 mg/day (cohort MAD2), or 540 mg/day (cohort MAD3) of the peptide or placebo for seven days. All doses were administered orally.

[1] = inhibitor given with the peptide

Molecule: COc1cc2c(cc1OC)C(=O)C(CC1CCN(Cc3ccccc3)CC1)C2 (centres unmarked) [Donepezil Hydrochloride]
- latency of the first jump from the platform (step-down) (Male ICR mice): significantly longer than the model group

Molecule: Cc1nc2c([nH]1)-c1ccccc1N(C(=O)c1ccc(NC(=O)c3ccccc3-c3ccccc3)cc1)CC2 [conivaptan]
- blocking of LSSTQAQQSY activity in a tail suspension test (AVPR1A, AVPR1B, AVPR2; [1]): blocks
- blocking of LSSTQAQQSY activity in a tail suspension test (AVPR1A, AVPR1B, AVPR2; low doses of the inhibitor): blocks

Molecule: Cc1ccccc1C(=O)Nc1ccc(C(=O)N2CCCC(O)c3cc(Cl)ccc32)c(C)c1 (centres unmarked) [tolvaptan]
- blocking of LSSTQAQQSY activity in a tail suspension test (AVPR1A, AVPR1B, AVPR2; [1]): does not block

Molecule: LSSTQAQQSY
- vital signs, electrocardiography (ECG) data, and physical examinations (healthy subjects): normal

Reference: patent US20250059233A1, “USE OF THERAPEUTIC PEPTIDES” (Viage Therapeutics Inc., priority 2021, published 2025)
